In PubChem BioAssay (NCI) one finds TGI data, which are given here for 16 compounds.

What all share (assay): growth of human tumour cells (NCI), 48 h
Assay [1] has as its system MDA-MB-231 breast.
Assay [2] relates to MOLT-4 leukemia.
Assay [3] relates to M14 melanoma.
In assay [4] the test system is HT29 colon.
The subject of assay [5] is SNB-75 CNS.
The test system of assay [6] is HCT-15 colon.
The test system of assay [7] is DU-145 prostate.
Assay [8] concerns HS 578T breast.
Assay [9] deals with KM12 colon.
For assay [10], the system named is UACC-62 melanoma.

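Test compounds were applied to cells in 96-well plates for 48 hours at 5 doses. TGI marks complete inhibition of growth.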

For the compound `CC(C)c1cccc(C(C)C)c1NC(=O)/C(CC(=O)CC(c1ccccc1)c1c(O)c2ccccc2oc1=O)=N/O` (stereo not given), the TGI in assay [1], in assay [2], in [3], in assay [4], in assay [5] and in assay [6] was over 100 µM throughout. Also, the TGI in [7], in assay [8], in assay [9] and in [10] was over 100 µM each time.
`CC1CCC2(NC1)OC1CC3C4CC=C5CC(OC6OC(CO)C(OC7OC(C)C(O)C(O)C7O)C(O)C6OC6OC(C)C(O)C(O)C6O)CCC5(C)C4CCC3(C)C1C2C` (stereo not given): the TGI in assay [1] was 8.93 µM; in assay [2] it was 26.7 µM; in assay [3], 6.39 µM; in [4], 15.6 µM; in [5] it was 5.87 µM; in [6], 16.9 µM. For the same compound, the TGI in assay [7] worked out at 8.61 µM; in [8] it was 15.6 µM; in assay [9], 9.17 µM; in [10] it was 7.71 µM.
As to `O=c1nc2c(c(-c3ccc(Br)cc3)[nH]1)COC/C2=C\c1ccc(Br)cc1`, the TGI in [1], in assay [2], in assay [3], in [4], in [5] and in [6] was over 50 µM each time. In addition, the TGI in [7], in assay [8], in [9] and in assay [10] was over 50 µM in each case.
As to `C/C=C(/C)C(=O)OC1CC(C)[C@H]2CC(=O)C(C)=C2CC1C(C)(C)OC(C)=O` (stereo not given in full), the TGI was over 100 µM in [1]; 76.8 µM in [2]; 63.8 µM in [3]; over 100 µM in assay [4]; over 100 µM in [5]; over 100 µM in assay [6]. Besides, the TGI in [7] was over 100 µM; in [8], over 100 µM; in [9] it was 91.6 µM; in [10] it was 48.6 µM.
As to `CC(=O)OCC1OC(n2c(-c3ccccc3)c(N=Nc3ccccc3)c(C)c(C#N)c2=S)C(OC(C)=O)C(OC(C)=O)C1OC(C)=O` (stereo not given), the TGI in assay [1], in assay [2], in [3], in assay [4], in assay [5] and in assay [6] was over 100 µM each time. The TGI in assay [7], in [8], in [9] and in assay [10] was over 100 µM each time.
For `OCCOCn1nncc1Cn1ncc2c(SCc3ccccc3)ncnc21`, the TGI was over 100 µM in [1]; 34 µM in assay [2]; over 100 µM in [3]; over 100 µM in [4]; over 100 µM in [5]; over 100 µM in assay [6]. For the same compound, the TGI in assay [7], in [8], in assay [9] and in assay [10] was over 100 µM in each case.
For `Cc1cc2c(O)c(c1)CN(CC(=O)O)Cc1cc(C)cc(c1O)CN(CC(=O)O)Cc1cc(C)cc(c1O)CN(CC(=O)O)C2`, the TGI in assay [1], in [2], in assay [3], in assay [4], in assay [5] and in [6] was over 100 µM in each case. Moreover, the TGI in [7], in assay [8], in assay [9] and in [10] was over 100 µM in each case.
Consider `CCP(=O)(OC)C1=CCN(C(=O)OCC[Si](C)(C)C)CC1` (stereo not given), for which the TGI in [1], in [2], in [3], in assay [4], in assay [5] and in assay [6] was over 100 µM in each case. For the same compound, the TGI in assay [7], in [8], in assay [9] and in assay [10] was over 100 µM throughout.
Consider `O=C1N=C2SC(=S)NC(=S)N2NC12c1ccccc1-c1ccccc12`, for which the TGI in assay [1], in assay [2], in [3], in assay [4], in assay [5] and in assay [6] was over 10 µM throughout. The TGI in [7], in assay [8], in assay [9] and in assay [10] was over 10 µM each time.
For the compound `C1=C2C3=[N+](CCCCC3)CC2Cc2ccsc21` (stereo not given), the TGI in assay [1], in [2], in assay [3], in assay [4], in assay [5] and in assay [6] was over 100 µM throughout. Moreover, the TGI in assay [7], in [8], in assay [9] and in assay [10] was over 100 µM throughout.
Regarding `Cc1cc2ncn(C3CCCCO3)c2cc1C` (stereo not given), the TGI in [1], in assay [2], in assay [3], in [4], in assay [5] and in [6] was over 100 µM each time. Further, the TGI in assay [7], in [8], in [9] and in [10] was over 100 µM each time.
Take `CN1C(=O)N(C)C(O)C(Cl)(Br)C1=O` (stereo not given): the TGI in assay [1], in assay [2], in [3], in assay [4], in assay [5] and in assay [6] was over 100 µM in each case. Also, the TGI in [7], in [8], in assay [9] and in assay [10] was over 100 µM each time.
As to `CC1C(NNc2ccccc2)Oc2cc3c(cc2C1c1ccccc1O)OCO3` (stereo not given), the TGI in assay [1] worked out at 28.7 µM; in [2] it was 19.2 µM; in assay [3], 11.2 µM; in assay [4], 19.4 µM; in assay [5] it was 23.6 µM; in assay [6], 15.2 µM. In addition, the TGI in assay [7] stood at 15.1 µM; in assay [8] it was 42.7 µM; in assay [9] it was 16.8 µM; in assay [10], 17.2 µM.
As to `CC1=NN(c2nc(N)nc(-c3sccc3N)n2)C(C)(C)C1`, the TGI in [1], in assay [2], in assay [3], in assay [4], in [5] and in [6] was over 100 µM throughout. In addition, the TGI in [7], in [8], in assay [9] and in assay [10] was over 100 µM throughout.
As to `O=C(OCCN=c1c2ccccc2ccc2ccccc12)c1ccccc1`, the TGI in assay [1], in [2], in assay [3], in assay [4], in assay [5] and in assay [6] was over 100 µM each time. The TGI in assay [7], in assay [8], in [9] and in assay [10] was over 100 µM in each case.
As for `O=c1[nH]c2nc3ccccc3nc2[nH]c1=O`, the TGI in [1], in [2], in assay [3], in [4], in [5] and in assay [6] was over 100 µM throughout. For the same compound, the TGI in [7], in [8], in assay [9] and in assay [10] was over 100 µM throughout.
